{"source": "paper PMC12795810", "about": "(Nature Communications, 2025)", "key": {"[1]": {"settings": "when combined with letrozole/abemaciclib"}, "[2]": {"settings": "cited from earlier work"}}}
{"compound": "CN(C)C(=N)N=C(N)N", "note": "[metformin]", "values": [{"measurement": "increase in metformin exposure", "setting": "[1]", "result": "more than 3 fold"}, {"measurement": "recommended maximum concentration for safe clinical use", "setting": "[2]", "result": 2500, "unit": "µg/L"}]}
